Measured values published in the NIST ThermoML archive (doi:10.1021/acs.jced.7b00898).
± gives the expanded uncertainty stated by the source.

How the values were obtained:
[1] = for mass density / electrical conductivity / viscosity: 100 kPa, Liquid; for mass density: Vibrating tube method; for surface tension liquid-gas: pt plate; for electrical conductivity: Alternating current cell with electrodes; for viscosity: Falling or rolling sphere viscometry
[2] = xn = mol fraction of the nth substance listed; conditions: 100 kPa, Liquid, Vibrating tube method, x2 = 0

CC#N [acetonitrile]
[1]
Conditions | mass density [kg/m3]
288.15 K | 787.33 ± 1.6
293.15 K | 781.96 ± 1.6
298.15 K | 776.61 ± 1.6
303.15 K | 771.18 ± 1.6
308.15 K | 765.73 ± 1.5
313.15 K | 760.25 ± 1.5
318.15 K | 754.72 ± 1.5
323.15 K | 749.16 ± 1.5

C[n+]1ccn(CCCC#N)c1.F[B-](F)(F)F [1-butyronitrile-3-methylimidazolium tetrafluoroborate]
[1]
Conditions | electrical conductivity [S/m] | mass density [kg/m3] | surface tension liquid-gas [mN/m] | viscosity [mPa·s]
288.15 K | 0.058 ± 0.056 | 1316.07 ± 2.7 | 49.1 ± 0.3 | 590.6 ± 74
293.15 K | 0.085 ± 0.068 | 1312.33 ± 2.7 | 48.7 ± 0.3 | 417.9 ± 50
298.15 K | 0.123 ± 0.082 | 1308.61 ± 2.7 | 48.4 ± 0.3 | 302.6 ± 35
303.15 K | 0.171 ± 0.097 | 1304.81 ± 2.6 | 48.1 ± 0.3 | 223.3 ± 25
308.15 K | 0.231 ± 0.11 | 1301.05 ± 2.6 | 47.7 ± 0.3 | 169.9 ± 18
313.15 K | 0.305 ± 0.13 | 1297.32 ± 2.6 | 47.4 ± 0.3 | 128.7 ± 13
318.15 K | 0.393 ± 0.15 | 1293.59 ± 2.6 | 47.1 ± 0.3 | 100.6 ± 10
323.15 K | 0.498 ± 0.17 | 1289.86 ± 2.6 | 46.8 ± 0.3 | 79.82 ± 8.1

CC#N [acetonitrile] + C[n+]1ccn(CCCC#N)c1.F[B-](F)(F)F
[2]
Conditions | mass density [kg/m3]
288.15 K | 787.33 ± 1.6
293.15 K | 781.96 ± 1.6
298.15 K | 776.61 ± 1.6
303.15 K | 771.18 ± 1.6
308.15 K | 765.73 ± 1.5
313.15 K | 760.25 ± 1.5
318.15 K | 754.72 ± 1.5
323.15 K | 749.16 ± 1.5
